Assay results published in US5849259A, “3-,8-substituted deuteroporphyrin derivatives, pharmaceutical agents containing the latter and process for their production” (priority 1992, dated 1998).

Key:
[1] = Tissue concentrations by ICP-AES after 0.1 mmol/kg i.v. in nude mice with subcutaneously implanted colon cancers (HT29, WiDr); assay type: in vivo, nude mice (Balb/c nu/nu)
Protocol: (§1) a) 9 nude mice (Balb/c nu/nu) with subcutaneously implanted colon cancers (HT29, WiDr) were each administered by i.v. 0.1 mmol/kg of the mesoporphyrin derivative of example 1b (10 mmol/l dissolved in bidistilled water, pH 7.2, 37° C.). After 0.5, 3 and 24 hours the animals were killed and dissected. The tissue concentrations were determined after corresponding working-up (HNO3 conc.) by ICP-AES and calculated for % of the administered dose per gram of tissue net weight.
(§2) e) 9 nude mice (Balb/c nu/nu) with subcutaneously implanted colon cancers (HT29 and WiDr) were each administered by i.v. 0.1 mmol/kg of the deuteroporphyrin derivative of the compound according to example 1c (10 mmol/l dissolved in bidistilled water, pH 7.2, 37° C.). After 0.5, 3 and 24 hours, the animals were killed and dissected. The tissue concentrations were determined after corresponding working-up (HNO3 conc.) by ICP-AES and calculated for % of the administered dose per gram of tissue net weight. Moreover, tissue relaxation times T1 and T2 were determined (Bruker minispec pc 120).
as §1, with “9” for “a) 9”, “8e” for “1b”, “hours,” for “hours”
as §1, with “9” for “a) 9”, “0.1.” for “0.1”, “16f” for “1b”, “0.5 and” for “0.5,”, “3” for “3 and 24”
as §1, with “9” for “a) 9”, “18d” for “1b”, “0.5 and” for “0.5,”, “hours,” for “and 24 hours”
as §1, with “9” for “a) 9”, “19e” for “1b”, “hours,” for “hours”

[2] = Tissue relaxation times T1 and T2 (Bruker minispec pc 120) after 0.1 mmol/kg i.v.; assay type: in vivo, nude mice (Balb/c nu/nu)
Protocol: as §2
f) 9 nude mice (Balb/c nu/nu) with subcutaneously implanted carcinomas (HT29, WiDr and MATLu) were each administered by i.v. 0.1 mmol/kg of the deuteroporphyrin derivative of example 1c (10 mmol/L dissolved in bidistilled water, pH 7.2, 37° C.). After 2 hours, the animals were killed and dissected. The tissue concentrations were determined after corresponding working-up (HNO3 conc.) by ICP-AES and calculated for % of the administered dose per gram of tissue net weight. Moreover, tissue relaxation times T1 and T2 were determined (Bruker minispec pc 120). To determine the blank readings, control animals were correspondingly studied without KM-administration.

N,N'-Bis[9-carboxylato-2,5,8-tris(carboxylatomethyl)-2,5,8-triazanonyl-carbamoyl]-mesoporphyrin-IX-13,17-diamide, digadolinium complex, disodium salt [Example 1c]
tissue concentration, kidneys ([1]; 0.5 hour p.i.): 4.06 ± 1.01 % of the administered dose per gram of tissue net weight | tissue concentration, kidneys ([1]; 3 hours p.i.): 4.47 ± 1.63 % of the administered dose per gram of tissue net weight | tissue concentration, kidneys ([1]; 24 hours p.i.): 4.20 ± 0.27 % of the administered dose per gram of tissue net weight | tissue relaxation time T1, HT29 tumor ([2]; 0.5 hour): 410 ± 30 ms | tissue relaxation time T1, WiDr tumor ([2]; 0.5 hour): 320 ± 40 ms | tissue relaxation time T1, kidneys ([2]; 0.5 hour): 160 ± 10 ms | tissue relaxation time T1, liver ([2]; 0.5 hour): 220 ± 20 ms | tissue relaxation time T1, muscle ([2]; 0.5 hour): 500 ± 40 ms | tissue relaxation time T2, HT29 tumor ([2]; 0.5 hour): 81 ± 4 ms | tissue relaxation time T2, WiDr tumor ([2]; 0.5 hour): 67 ± 7 ms | tissue relaxation time T2, kidneys ([2]; 0.5 hour): 42 ± 1 ms | tissue relaxation time T2, liver ([2]; 0.5 hour): 34 ± 3 ms | tissue relaxation time T2, muscle ([2]; 0.5 hour): 32 ± 1 ms | effect on tissue relaxation times in prostate cancer (MATLu) versus colon cancers ([2]; 2 hours): greater than in the colon cancers | tissue relaxation time T1, HT29 tumor ([2]; 2 hours): 375 ± 32 ms | tissue relaxation time T1, MATLu ([2]; 2 hours): 361 ± 65 ms | tissue relaxation time T1, WiDr tumor ([2]; 2 hours): 358 ± 70 ms | tissue relaxation time T2, HT29 tumor ([2]; 2 hours): 94 ± 7 ms | tissue relaxation time T2, MATLu ([2]; 2 hours): 102 ± 10 ms | tissue relaxation time T2, WiDr tumor ([2]; 2 hours): 110 ± 9 ms | tissue relaxation time T1, HT29 tumor ([2]; 3 hours): 440 ± 70 ms | tissue relaxation time T1, WiDr tumor ([2]; 3 hours): 430 ± 50 ms | tissue relaxation time T1, kidneys ([2]; 3 hours): 230 ± 30 ms | tissue relaxation time T1, liver ([2]; 3 hours): 220 ± 30 ms | tissue relaxation time T1, muscle ([2]; 3 hours): 560 ± 40 ms | tissue relaxation time T2, HT29 tumor ([2]; 3 hours): 72 ± 8 ms | tissue relaxation time T2, WiDr tumor ([2]; 3 hours): 72 ± 7 ms | tissue relaxation time T2, kidneys ([2]; 3 hours): 47 ± 5 ms | tissue relaxation time T2, liver ([2]; 3 hours): 42 ± 2 ms | tissue relaxation time T2, muscle ([2]; 3 hours): 36 ± 3 ms | tissue relaxation time T1, HT29 tumor ([2]; 24 hours): 540 ± 20 ms | tissue relaxation time T1, WiDr tumor ([2]; 24 hours): 640 ± 10 ms | tissue relaxation time T1, kidneys ([2]; 24 hours): 240 ± 20 ms | tissue relaxation time T1, liver ([2]; 24 hours): 260 ± 10 ms | tissue relaxation time T1, muscle ([2]; 24 hours): 660 ± 10 ms | tissue relaxation time T2, HT29 tumor ([2]; 24 hours): 83 ± 7 ms | tissue relaxation time T2, WiDr tumor ([2]; 24 hours): 85 ± 2 ms | tissue relaxation time T2, kidneys ([2]; 24 hours): 54 ± 10 ms | tissue relaxation time T2, liver ([2]; 24 hours): 48 ± 7 ms | tissue relaxation time T2, muscle ([2]; 24 hours): 31 ± 1 ms | shortening of T1 tissue relaxation times, all three tumors ([2]; HT29, WiDr, MATLu, 2 hours): 2-3 factor | shortening of T1 tissue relaxation times, both tumors ([2]; HT29 and WiDr): 2-3 factor | tissue relaxation time T1, kidneys ([2]; HT29 mice, 2 hours): 150 ± 12 ms | tissue relaxation time T1, liver ([2]; HT29 mice, 2 hours): 174 ± 8 ms | tissue relaxation time T1, muscle ([2]; HT29 mice, 2 hours): 489 ± 57 ms | tissue relaxation time T2, kidneys ([2]; HT29 mice, 2 hours): 59 ± 3 ms | tissue relaxation time T2, liver ([2]; HT29 mice, 2 hours): 49 ± 2 ms | tissue relaxation time T2, muscle ([2]; HT29 mice, 2 hours): 56 ± 2 ms | tissue relaxation time T1, kidneys ([2]; MATLu mice, 2 hours): 171 ± 20 ms | tissue relaxation time T1, liver ([2]; MATLu mice, 2 hours): 191 ± 10 ms | tissue relaxation time T1, muscle ([2]; MATLu mice, 2 hours): 506 ± 10 ms | tissue relaxation time T2, kidneys ([2]; MATLu mice, 2 hours): 60 ± 1 ms | tissue relaxation time T2, liver ([2]; MATLu mice, 2 hours): 51 ± 2 ms | tissue relaxation time T2, muscle ([2]; MATLu mice, 2 hours): 54 ± 2 ms | tissue relaxation time T1, kidneys ([2]; WiDr mice, 2 hours): 159 ± 30 ms | tissue relaxation time T1, liver ([2]; WiDr mice, 2 hours): 180 ± 30 ms | tissue relaxation time T1, muscle ([2]; WiDr mice, 2 hours): 508 ± 40 ms | tissue relaxation time T2, kidneys ([2]; WiDr mice, 2 hours): 64 ± 2 ms | tissue relaxation time T2, liver ([2]; WiDr mice, 2 hours): 53 ± 5 ms | tissue relaxation time T2, muscle ([2]; WiDr mice, 2 hours): 62 ± 3 ms
